Test [1] addresses T1, Inhibitor of nuclear factor kappa-B kinase subunit epsilon (Homo sapiens) (UniProt Q14164).
T1 sequence (whole entry): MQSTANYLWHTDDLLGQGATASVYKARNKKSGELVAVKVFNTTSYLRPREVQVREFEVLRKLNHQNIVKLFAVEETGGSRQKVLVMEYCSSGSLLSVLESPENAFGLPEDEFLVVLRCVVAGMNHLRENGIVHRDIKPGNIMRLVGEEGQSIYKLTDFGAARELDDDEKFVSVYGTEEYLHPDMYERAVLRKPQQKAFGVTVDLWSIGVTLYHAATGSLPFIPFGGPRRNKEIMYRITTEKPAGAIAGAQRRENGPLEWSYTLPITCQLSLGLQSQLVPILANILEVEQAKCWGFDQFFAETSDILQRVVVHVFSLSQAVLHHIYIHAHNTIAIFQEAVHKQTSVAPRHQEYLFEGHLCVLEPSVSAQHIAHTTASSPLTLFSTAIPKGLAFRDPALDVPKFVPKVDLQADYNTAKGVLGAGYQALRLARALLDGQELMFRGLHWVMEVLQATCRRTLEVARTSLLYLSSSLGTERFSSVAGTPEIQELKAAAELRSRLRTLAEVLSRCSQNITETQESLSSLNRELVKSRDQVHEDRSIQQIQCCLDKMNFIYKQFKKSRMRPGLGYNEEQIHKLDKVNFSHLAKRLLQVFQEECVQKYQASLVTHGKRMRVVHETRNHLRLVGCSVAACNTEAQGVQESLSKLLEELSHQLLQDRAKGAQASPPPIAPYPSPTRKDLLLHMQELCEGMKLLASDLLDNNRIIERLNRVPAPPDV
The following applies: at 1 µM.

Test [2] concerns the target T2, Tyrosine-protein kinase Mer (Homo sapiens) (UniProt Q12866).
T2 sequence (whole entry): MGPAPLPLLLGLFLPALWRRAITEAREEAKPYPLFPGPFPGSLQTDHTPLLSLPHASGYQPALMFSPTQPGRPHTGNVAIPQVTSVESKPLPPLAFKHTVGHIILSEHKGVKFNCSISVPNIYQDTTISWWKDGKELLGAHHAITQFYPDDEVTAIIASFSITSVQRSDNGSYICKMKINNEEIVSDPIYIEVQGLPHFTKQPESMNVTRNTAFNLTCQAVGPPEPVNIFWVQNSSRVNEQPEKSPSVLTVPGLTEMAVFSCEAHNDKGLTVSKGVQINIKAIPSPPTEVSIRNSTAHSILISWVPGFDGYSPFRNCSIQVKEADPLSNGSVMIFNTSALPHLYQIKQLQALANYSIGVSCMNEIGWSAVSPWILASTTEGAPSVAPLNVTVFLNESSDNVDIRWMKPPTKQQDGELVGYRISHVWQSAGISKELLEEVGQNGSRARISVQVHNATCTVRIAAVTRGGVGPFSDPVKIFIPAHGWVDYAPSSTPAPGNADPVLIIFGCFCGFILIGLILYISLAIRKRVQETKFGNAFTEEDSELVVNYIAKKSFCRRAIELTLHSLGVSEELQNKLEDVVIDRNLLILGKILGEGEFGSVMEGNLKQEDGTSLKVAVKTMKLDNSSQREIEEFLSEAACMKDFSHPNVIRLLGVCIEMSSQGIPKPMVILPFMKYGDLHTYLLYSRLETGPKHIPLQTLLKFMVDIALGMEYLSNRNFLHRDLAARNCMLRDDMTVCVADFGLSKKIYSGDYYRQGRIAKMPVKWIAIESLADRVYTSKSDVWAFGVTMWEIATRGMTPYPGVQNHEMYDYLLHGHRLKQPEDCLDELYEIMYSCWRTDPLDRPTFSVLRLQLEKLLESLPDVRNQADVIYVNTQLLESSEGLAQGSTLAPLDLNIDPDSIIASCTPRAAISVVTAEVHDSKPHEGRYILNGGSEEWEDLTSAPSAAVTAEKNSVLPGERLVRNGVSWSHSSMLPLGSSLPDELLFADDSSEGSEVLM
The following applies: at 10 µM.

For test [3], the target named is T3, Serine/threonine-protein kinase TBK1 (Homo sapiens) (UniProt Q9UHD2).
T3 sequence (whole entry): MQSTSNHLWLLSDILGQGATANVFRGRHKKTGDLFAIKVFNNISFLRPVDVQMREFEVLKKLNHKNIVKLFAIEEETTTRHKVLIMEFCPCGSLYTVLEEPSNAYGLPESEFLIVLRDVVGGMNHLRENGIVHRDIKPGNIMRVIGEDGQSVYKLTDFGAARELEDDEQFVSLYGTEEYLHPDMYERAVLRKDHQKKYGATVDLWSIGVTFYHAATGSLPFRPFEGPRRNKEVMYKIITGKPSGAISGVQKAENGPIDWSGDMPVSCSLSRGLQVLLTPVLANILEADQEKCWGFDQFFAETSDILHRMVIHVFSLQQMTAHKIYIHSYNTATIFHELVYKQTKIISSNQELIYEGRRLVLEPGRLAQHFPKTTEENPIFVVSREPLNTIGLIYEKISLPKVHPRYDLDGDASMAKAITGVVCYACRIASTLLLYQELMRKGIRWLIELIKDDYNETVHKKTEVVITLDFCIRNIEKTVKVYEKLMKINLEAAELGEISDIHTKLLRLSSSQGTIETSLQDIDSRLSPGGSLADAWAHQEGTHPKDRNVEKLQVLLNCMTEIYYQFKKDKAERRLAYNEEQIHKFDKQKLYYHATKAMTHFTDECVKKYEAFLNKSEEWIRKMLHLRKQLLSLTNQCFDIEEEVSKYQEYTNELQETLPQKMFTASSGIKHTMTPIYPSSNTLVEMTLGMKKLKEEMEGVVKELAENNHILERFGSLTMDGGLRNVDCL
The following applies: at 1 µM.

The target of test [4] is T4, Inhibitor of nuclear factor kappa-B kinase subunit alpha (Homo sapiens) (UniProt O15111).
T4 sequence (whole entry): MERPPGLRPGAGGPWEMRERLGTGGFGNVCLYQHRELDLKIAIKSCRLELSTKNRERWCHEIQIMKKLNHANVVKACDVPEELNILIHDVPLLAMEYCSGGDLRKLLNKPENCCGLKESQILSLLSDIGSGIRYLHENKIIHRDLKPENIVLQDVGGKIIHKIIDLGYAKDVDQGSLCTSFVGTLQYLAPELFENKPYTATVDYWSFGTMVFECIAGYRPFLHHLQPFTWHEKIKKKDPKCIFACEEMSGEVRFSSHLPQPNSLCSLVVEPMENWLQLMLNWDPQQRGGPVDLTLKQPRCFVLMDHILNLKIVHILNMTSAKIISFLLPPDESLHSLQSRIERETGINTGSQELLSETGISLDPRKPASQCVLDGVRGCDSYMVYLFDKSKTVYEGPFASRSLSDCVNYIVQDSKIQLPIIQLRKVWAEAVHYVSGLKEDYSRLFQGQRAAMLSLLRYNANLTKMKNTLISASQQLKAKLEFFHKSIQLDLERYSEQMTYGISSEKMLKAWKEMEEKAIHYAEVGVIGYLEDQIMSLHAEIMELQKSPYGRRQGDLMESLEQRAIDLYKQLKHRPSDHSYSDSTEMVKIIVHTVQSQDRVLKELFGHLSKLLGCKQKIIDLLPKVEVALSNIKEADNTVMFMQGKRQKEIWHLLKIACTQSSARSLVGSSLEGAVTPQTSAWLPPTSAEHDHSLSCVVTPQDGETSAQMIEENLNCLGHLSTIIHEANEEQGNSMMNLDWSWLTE
The following applies: at 1 µM.

The target of test [5] is T5, Inhibitor of nuclear factor kappa-B kinase subunit beta (Homo sapiens) (UniProt O14920).
T5 sequence (whole entry): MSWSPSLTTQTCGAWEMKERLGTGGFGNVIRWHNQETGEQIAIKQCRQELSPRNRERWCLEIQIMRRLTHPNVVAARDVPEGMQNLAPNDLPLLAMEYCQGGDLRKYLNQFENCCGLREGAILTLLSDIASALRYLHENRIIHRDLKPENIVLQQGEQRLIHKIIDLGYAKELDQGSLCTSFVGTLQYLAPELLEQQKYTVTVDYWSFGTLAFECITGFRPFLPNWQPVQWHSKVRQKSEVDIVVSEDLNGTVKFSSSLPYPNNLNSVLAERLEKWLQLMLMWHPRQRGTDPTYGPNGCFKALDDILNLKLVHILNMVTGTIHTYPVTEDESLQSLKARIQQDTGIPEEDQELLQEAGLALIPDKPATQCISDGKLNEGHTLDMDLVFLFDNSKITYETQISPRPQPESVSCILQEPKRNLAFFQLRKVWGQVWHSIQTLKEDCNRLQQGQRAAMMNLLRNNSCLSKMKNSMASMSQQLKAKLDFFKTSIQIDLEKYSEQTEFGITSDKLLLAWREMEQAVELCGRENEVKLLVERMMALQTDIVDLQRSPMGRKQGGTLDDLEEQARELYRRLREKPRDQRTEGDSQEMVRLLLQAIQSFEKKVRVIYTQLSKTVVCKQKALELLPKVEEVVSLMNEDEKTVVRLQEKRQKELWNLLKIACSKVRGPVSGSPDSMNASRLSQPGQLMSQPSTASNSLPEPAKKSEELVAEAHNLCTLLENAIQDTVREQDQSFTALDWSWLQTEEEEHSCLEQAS
The conditions noted are these: at 1 µM.

Each structure is given as a SMILES string. “And” between values parts separate entries of the source, which are not always exact repeats. Equal entries are not always repeated.

As a reminder, the inhibition is the relative decrease from the control value, in per cent. `CC(C)c1ccc2c(c1)NC(=O)/C2=N/Nc1ccc(S(N)(=O)=O)cc1`: the inhibition in test [1] is 0%; in test [2], -10%; in test [3], -5% and -1%; in test [4] it was 5% and 4%.
Consider `COc1cccc(Nc2nccc(-c3cnn4ncccc34)n2)c1`, for which the inhibition in test [1] was 11% and 20%; in test [2] it was 98%; in test [3] it was 24% and 31%; in test [4], 0% and 2%.
Consider `c1cc(-c2cnn3nc(N4CCOCC4)ccc23)nc(NC2CC2)n1`, for which the inhibition was 5% and 6% in test [1]; -4% in test [2]; 5% and 6% in test [3]; -2% and -3% in test [4].
For the compound `NS(=O)(=O)c1ccc(N/C=C2\C(=O)Nc3ccc4ncsc4c32)cc1`, the inhibition in test [1] is -8% and -9%; in test [5] it was -4% and -5%; in test [3] it was 85% and 86%; in test [4], -3% and -2%.
Take `[O-][S+]1CCN(Cc2ccc(-c3ccc4ncnc(Nc5ccc(OCc6ccccc6)c(F)c5)c4c3)o2)CC1`: the inhibition in test [1] is 1%; in test [5] it was -4% and -10%; in test [3] it was 5% and 2%; in test [4], 5%.
Turning to `COC(=O)Nc1nc2ccc(Oc3ccc(NC(=O)Nc4cc(C(F)(F)F)ccc4F)cc3)cc2s1`, the inhibition was -4% and -6% in test [1]; -4% and -8% in test [5]; -5% and -3% in test [3]; 5% and 4% in test [4].
Turning to `O=C(Nc1n[nH]c2nc(-c3ccco3)ccc12)C1CC1`, the inhibition in test [1] was 0%; in test [5] it was -6%; in test [3], 4% and 3%; in test [4], 7% and 6%.
On to `C[C@@H](Oc1cc(-n2cnc3ccc(OCC4CCN(C)CC4)cc32)sc1C(N)=O)c1ccccc1Cl`, for which the inhibition in test [1] is 3%; in test [2], 55%; in test [3] it was 6% and 8%; in test [4], -10% and 3%.
As to `Clc1ccc(-c2nn3ncccc3c2-c2ccnc(Nc3ccccc3)n2)cc1`, the inhibition in test [1] was 0% and 1%; in test [2], -9%; in test [3], -2% and -3%; in test [4], 50%.
With `Fc1ccc(-c2nn3ncccc3c2-c2ccnc(Nc3ccc4c(c3)OCCO4)n2)cc1`, the inhibition in test [1] is 12% and 9%; in test [5] it was -2% and -4%; in test [3] it was 4% and -2%.
Take `N#Cc1cccc(Nc2nccc(-c3cnn4ncccc34)n2)c1`: the inhibition is 35% and 37% in test [1]; -4% and 0% in test [5]; 37% and 39% in test [3]; -9% in test [4].
As for `Cc1ccc(NC(=O)CC2CC2)cc1-c1ccc(C(=O)NCC2CC2)cc1`, the inhibition in test [1] was 0%; in test [5], -2% and -1%; in test [3] it was -1% and 1%; in test [4], 1% and 0%.
Regarding `Fc1cccc(COc2ccc(Nc3ncnc4cc(-c5ccc[nH]5)sc34)cc2Cl)c1`, the inhibition in test [1] is -1%; in test [5], 3% and 2%; in test [3], 0% and -4%; in test [4], 60% and 64%.
As to `CCS(=O)(=O)c1ccc(OC)c(Nc2ncc(-c3cccc(C(C)=O)c3)o2)c1`, the inhibition in test [1] is 1%; in test [2] it was 65%; in test [3] it was 7% and 5%; in test [4] it was -1%.
Regarding `Nc1ncnc2occ(-c3ccc(NC(=O)Nc4cc(C(F)(F)F)ccc4F)cc3)c12`, the inhibition was 12% [middle of 4 runs] in test [1]; -7% and -4% in test [5]; -1% (2×) and 2% and 1% in test [3]; 2% [middle of 4 runs] in test [4].
In the case of `Nc1nccc(-c2c(-c3ccc(F)cc3)ncn2C2CCNCC2)n1`, the inhibition in test [1] is 1% [middle of 4 runs]; in test [5], -4% and -5%; in test [3], 0% [middle of 4 runs]; in test [4], 4% (2×) and 5% and 3%.

For the origin of these results see ChEMBL document CHEMBL2007661, “Compounds: GSK PKIS; Assays: UNC Frye lab” (2012).
